{
  "source": "patent US20240335402A1",
  "about": "“BIODEGRADABLE ANTI-INFECTIVE FORMULATIONS” (New Mexico Tech University Research Park Corporation, priority 2023, published 2024)",
  "test_system": "colistin (polymyxin E, or PME) resistant bacterium S. maltophilia",
  "experiment": "Spot test on lawn of colistin resistant bacterium",
  "assay_type": "cell-based",
  "settings": "10 μL spotted, 37° C., 2 days",
  "data": [
    {"molecule": "O=C([O-])CC(O)(CC(=O)[O-])C(=O)[O-].[Na+].[Na+].[Na+]", "note": "[Trisodium citrate]", "values": [
      {"measurement": "activity / kill of S. maltophilia lawn", "value": "did not work as well as CTAC"}
    ]}
  ]
}
